Data as given in article PMC10247784, “Physiological activation of human and mouse bitter taste receptors by bile acids” (Communications Biology, 2023).
Values joined by “and” are separate entries in the source; they are usually repeats but may differ in a detail not shown here. Equal entries are not always repeated.

Target: T1, human TAS2R14 (Homo sapiens, UniProt Q9NYV8)
T1 construct: expressed in transfected cells; host or cells: HEK293T-Gα16gust44
T1 sequence (Q9NYV8 1-317): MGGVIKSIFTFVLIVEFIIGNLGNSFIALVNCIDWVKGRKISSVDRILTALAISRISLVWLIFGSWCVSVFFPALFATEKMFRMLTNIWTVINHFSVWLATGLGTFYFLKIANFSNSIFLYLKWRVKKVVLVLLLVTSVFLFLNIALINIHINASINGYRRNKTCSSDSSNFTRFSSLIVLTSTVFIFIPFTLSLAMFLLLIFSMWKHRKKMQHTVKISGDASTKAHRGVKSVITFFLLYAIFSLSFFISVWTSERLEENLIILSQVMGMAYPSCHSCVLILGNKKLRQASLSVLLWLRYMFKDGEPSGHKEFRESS
Experiment: Calcium imaging assay (FLIPR), HEK293T-Gα16gust44 cells transfected with human TAS2R14
Assay type: cell-based
Details: for RLU: TAS2R14 trace
Summary of the method: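 Bile acids from DMSO stocks are applied to dye-loaded cells one day after transient receptor transfection, and calcium-dependent fluorescence is recorded. Maximum signal is standardized to basal and normalized to buffer-only wells, with empty-vector signal subtracted.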

Compound: C[C@H](CCC(=O)O)[C@H]1CC[C@H]2[C@@H]3[C@H](O)C[C@@H]4C[C@H](O)CC[C@]4(C)[C@H]3C[C@H](O)[C@]12C [Cholic Acid, cholic acid]
- Efficacy = maximal amplitude (ΔF/F) (TAS2R14, bile acids, mean): 0.2451
- Efficacy (maximal amplitude ΔF/F), individual data points (TAS2R14, bile acids, single replicates, listed as CA): 0.2582 and 0.2878 and 0.1894
- RLU (Time (s) 0): 0 RLU
- RLU (Time (s) 2 (Taurocholic Acid 2.016)): 8.733 RLU
- RLU (Time (s) 4 (Taurocholic Acid 4.016)): -17.1002 RLU
- RLU (Time (s) 6 (Taurocholic Acid 6.016)): -14.5682 RLU
- RLU (Time (s) 8 (Taurocholic Acid 8.016)): -36.4848 RLU
- RLU (Time (s) 12 (Taurocholic Acid 12.016)): -26.3442 RLU
- RLU (Time (s) 14 (Taurocholic Acid 14.016)): -33.528 RLU
- RLU (Time (s) 16 (Taurocholic Acid 16.016)): -31.0627 RLU
- RLU (Time (s) 18 (Taurocholic Acid 18.016)): -30.2662 RLU
- RLU (Time (s) 18.797 (Chenodeoxycholic Acid 18.765)): -22.7559 RLU
- RLU (Time (s) 20.797 (Chenodeoxycholic Acid 20.781)): -44.5987 RLU
- RLU (Time (s) 22.797 (Chenodeoxycholic Acid 22.781)): 9.863 RLU
- RLU (Time (s) 24.797 (Chenodeoxycholic Acid 24.781)): -6.39 RLU
- RLU (Time (s) 26.797 (Chenodeoxycholic Acid 26.781)): 16.5716 RLU
- RLU (Time (s) 28.797 (Chenodeoxycholic Acid 28.781)): 41.6203 RLU
- RLU (Time (s) 30.797 (Chenodeoxycholic Acid 30.781)): 60.9467 RLU
- RLU (Time (s) 32.797 (Chenodeoxycholic Acid 32.781)): 99 RLU
- RLU (Time (s) 34.797 (Chenodeoxycholic Acid 34.781)): 154.774 RLU
- RLU (Time (s) 36.797 (Chenodeoxycholic Acid 36.781)): 189.099 RLU
- RLU (Time (s) 38.797 (Chenodeoxycholic Acid 38.781)): 207.548 RLU
- RLU (Time (s) 40.797 (Chenodeoxycholic Acid 40.781)): 286.95 RLU
- RLU (Time (s) 42.797 (Chenodeoxycholic Acid 42.781)): 332.949 RLU
- RLU (Time (s) 44.797 (Chenodeoxycholic Acid 44.781)): 381.413 RLU
- RLU (Time (s) 46.797 (Chenodeoxycholic Acid 46.781)): 432.303 RLU
- RLU (Time (s) 48.797 (Chenodeoxycholic Acid 48.781)): 481.551 RLU
- RLU (Time (s) 50.797 (Chenodeoxycholic Acid 50.781)): 522.709 RLU
- RLU (Time (s) 52.797 (Chenodeoxycholic Acid 52.781)): 573.985 RLU
- RLU (Time (s) 54.797 (Chenodeoxycholic Acid 54.781)): 600.804 RLU
- RLU (Time (s) 56.797 (Chenodeoxycholic Acid 56.781)): 603.138 RLU
- RLU (Time (s) 58.797 (Chenodeoxycholic Acid 58.781)): 677.301 RLU
- RLU (Time (s) 60.797 (Chenodeoxycholic Acid 60.781)): 689.232 RLU
- RLU (Time (s) 62.797 (Chenodeoxycholic Acid 62.781)): 740.761 RLU
- RLU (Time (s) 64.797 (Chenodeoxycholic Acid 64.781)): 760.673 RLU
- RLU (Time (s) 66.797 (Chenodeoxycholic Acid 66.781)): 793.47 RLU
- RLU (Time (s) 68.797 (Chenodeoxycholic Acid 68.781)): 795.682 RLU
- RLU (Time (s) 70.797 (Chenodeoxycholic Acid 70.781)): 846.508 RLU
- RLU (Time (s) 72.797 (Chenodeoxycholic Acid 72.781)): 873.655 RLU
- RLU (Time (s) 74.797 (Chenodeoxycholic Acid 74.781)): 945.307 RLU
- RLU (Time (s) 76.797 (Chenodeoxycholic Acid 76.781)): 951.601 RLU
- RLU (Time (s) 78.797 (Chenodeoxycholic Acid 78.781)): 969.484 RLU
- RLU (Time (s) 80.797 (Chenodeoxycholic Acid 80.781)): 1026.08 RLU
- RLU (Time (s) 82.797 (Chenodeoxycholic Acid 82.781)): 1051.68 RLU
- RLU (Time (s) 84.797 (Chenodeoxycholic Acid 84.781)): 1028.13 RLU
- RLU (Time (s) 86.797 (Chenodeoxycholic Acid 86.781)): 1075.38 RLU
- RLU (Time (s) 88.797 (Chenodeoxycholic Acid 88.781)): 1071.24 RLU
- RLU (Time (s) 90.797 (Chenodeoxycholic Acid 90.781)): 1092.31 RLU
- RLU (Time (s) 92.797 (Chenodeoxycholic Acid 92.781)): 1143.7 RLU
- RLU (Time (s) 94.797 (Chenodeoxycholic Acid 94.781)): 1154.9 RLU
- RLU (Time (s) 96.797 (Chenodeoxycholic Acid 96.781)): 1163.63 RLU
- RLU (Time (s) 98.797 (Chenodeoxycholic Acid 98.781)): 1184.89 RLU
- RLU (Time (s) 100.797 (Chenodeoxycholic Acid 100.781)): 1211.25 RLU
- RLU (Time (s) 102.797 (Chenodeoxycholic Acid 102.781)): 1207.36 RLU
- RLU (Time (s) 104.797 (Chenodeoxycholic Acid 104.781)): 1232.88 RLU
- RLU (Time (s) 106.797 (Chenodeoxycholic Acid 106.781)): 1256.04 RLU
- RLU (Time (s) 108.797 (Chenodeoxycholic Acid 108.781)): 1236.19 RLU
- RLU (Time (s) 110.797 (Chenodeoxycholic Acid 110.781)): 1242.72 RLU
- RLU (Time (s) 112.797 (Chenodeoxycholic Acid 112.781)): 1266.26 RLU
- RLU (Time (s) 114.797 (Chenodeoxycholic Acid 114.781)): 1269.15 RLU
- RLU (Time (s) 116.797 (Chenodeoxycholic Acid 116.781)): 1265.61 RLU
- RLU (Time (s) 118.797 (Chenodeoxycholic Acid 118.781)): 1260.33 RLU
- RLU (Time (s) 120.797 (Chenodeoxycholic Acid 120.781)): 1305.24 RLU
- RLU (Time (s) 122.797 (Chenodeoxycholic Acid 122.781)): 1269.8 RLU
- RLU (Time (s) 124.797 (Chenodeoxycholic Acid 124.781)): 1271.64 RLU
- RLU (Time (s) 126.797 (Chenodeoxycholic Acid 126.781)): 1263.68 RLU
- RLU (Time (s) 128.797 (Chenodeoxycholic Acid 128.781)): 1291.8 RLU
- RLU (Time (s) 130.797 (Chenodeoxycholic Acid 130.781)): 1262.68 RLU
- RLU (Time (s) 132.797 (Chenodeoxycholic Acid 132.781)): 1269.55 RLU
- RLU (Time (s) 134.797 (Chenodeoxycholic Acid 134.781)): 1262.84 RLU
- RLU (Time (s) 136.797 (Chenodeoxycholic Acid 136.781)): 1277.95 RLU
- RLU (Time (s) 137.562 (Taurocholic Acid 137.563, Chenodeoxycholic Acid 137.546)): 1261.13 RLU
- RLU (Time (s) 143.578 (Taurocholic Acid 143.563, Chenodeoxycholic Acid 143.546)): 1235.79 RLU
- RLU (Time (s) 149.578 (Taurocholic Acid 149.563, Chenodeoxycholic Acid 149.546)): 1235.83 RLU
- RLU (Time (s) 155.578 (Taurocholic Acid 155.563, Chenodeoxycholic Acid 155.546)): 1156.37 RLU
- RLU (Time (s) 161.578 (Taurocholic Acid 161.563, Chenodeoxycholic Acid 161.546)): 1154.38 RLU
- RLU (Time (s) 167.578 (Taurocholic Acid 167.563, Chenodeoxycholic Acid 167.546)): 1122.87 RLU
- RLU (Time (s) 173.578 (Taurocholic Acid 173.563, Chenodeoxycholic Acid 173.546)): 1009.37 RLU
- RLU (Time (s) 179.578 (Taurocholic Acid 179.563, Chenodeoxycholic Acid 179.546)): 994.85 RLU
- RLU (Time (s) 191.578 (Taurocholic Acid 191.563, Chenodeoxycholic Acid 191.546)): 855.583 RLU
- RLU (Time (s) 197.578 (Taurocholic Acid 197.563, Chenodeoxycholic Acid 197.546)): 818.047 RLU
- RLU (Time (s) 209.578 (Taurocholic Acid 209.563, Chenodeoxycholic Acid 209.546)): 723.754 RLU
- RLU (Time (s) 221.578 (Taurocholic Acid 221.563, Chenodeoxycholic Acid 221.546)): 629.159 RLU
- RLU (Time (s) 233.578 (Taurocholic Acid 233.563, Chenodeoxycholic Acid 233.546)): 528.668 RLU
- RLU (Time (s) 239.578 (Taurocholic Acid 239.563, Chenodeoxycholic Acid 239.546)): 477.512 RLU
- RLU (Time (s) 245.578 (Taurocholic Acid 245.563, Chenodeoxycholic Acid 245.546)): 438.571 RLU
- RLU (Time (s) 293.578 (Taurocholic Acid 293.563, Chenodeoxycholic Acid 293.546)): 221.346 RLU
- RLU (Time (s) 299.578 (Taurocholic Acid 299.563, Chenodeoxycholic Acid 299.546)): 202.892 RLU
- RLU (Time (s) 305.578 (Taurocholic Acid 305.563, Chenodeoxycholic Acid 305.546)): 181.254 RLU
- RLU (Time (s) 311.578 (Taurocholic Acid 311.563, Chenodeoxycholic Acid 311.546)): 152.075 RLU
- RLU (Time (s) 317.578 (Taurocholic Acid 317.563, Chenodeoxycholic Acid 317.546)): 165.461 RLU
- RLU (Time (s) 323.578 (Taurocholic Acid 323.563, Chenodeoxycholic Acid 323.546)): 152.075 RLU
- RLU (Time (s) 329.578 (Taurocholic Acid 329.563, Chenodeoxycholic Acid 329.546)): 111.269 RLU
- RLU (Time (s) 335.578 (Taurocholic Acid 335.563, Chenodeoxycholic Acid 335.546)): 88.8846 RLU
- RLU (Time (s) 341.578 (Taurocholic Acid 341.563, Chenodeoxycholic Acid 341.546)): 75.1088 RLU
- RLU (Time (s) 347.578 (Taurocholic Acid 347.563, Chenodeoxycholic Acid 347.546)): 60.0955 RLU
- RLU (Time (s) 353.578 (Taurocholic Acid 353.563, Chenodeoxycholic Acid 353.546)): 37.7794 RLU
- RLU (Time (s) 359.578 (Taurocholic Acid 359.563, Chenodeoxycholic Acid 359.546)): 47.6877 RLU
- Activation threshold concentration TAS2R14 (lowest concentration with significantly increased fluorescence vs empty vector (p < 0.01)): 300 µM
